What was measured:
Assay in all cases: KINOMEscan
Type in all cases: binding
Conditions in all cases: read-out: percent control
PRKG2 = PRKG2 (Homo sapiens (Human), UniProt Q13237)
Description: (§1) Example 2. In Vitro Kinase Selectivity Profiling of the Compounds of the Present Disclosure

PFTK1 = PFTK1 (Homo sapiens (Human), UniProt O94921)
Description: as §1

ERBB3 = ERBB3 (Homo sapiens (Human), UniProt P21860)
Description: as §1

ALK = ALK (Homo sapiens (Human), UniProt Q9UM73)
Description: as §1

BTK = BTK (Homo sapiens (Human), UniProt Q06187)
Description: as §1

GSK3B = GSK3B (Homo sapiens (Human), UniProt P49841)
Description: as §1

VPS34 = VPS34 (Homo sapiens (Human), UniProt Q8NEB9)
Description: as §1

PAK1 = PAK1 (Homo sapiens (Human), UniProt Q13153)
Description: as §1

CHEK1 = CHEK1 (Homo sapiens (Human), UniProt O14757)
Description: as §1

ERN1 = ERN1 (Homo sapiens (Human), UniProt O75460)
Description: as §1

TRKB = TRKB (Homo sapiens (Human), UniProt Q16620)
Description: as §1

[1] = target: RSK2(Kin.Dom.2-C-terminal) (Homo sapiens (Human), UniProt P51812)
Description: as §1

MLK1 = MLK1 (Homo sapiens (Human), UniProt P80192)
Description: as §1

EGFR(G719C) = EGFR(G719C) (Homo sapiens (Human), UniProt P00533, G719C)
Description: as §1

CDK4-cyclinD1 = CDK4-cyclinD1 (Homo sapiens (Human), UniProt P11802)
Description: as §1

BRAF(V600E) = BRAF(V600E) (Homo sapiens (Human), UniProt P15056, V600E)
Description: as §1

PIK3CA = PIK3CA (Homo sapiens (Human), UniProt P42336)
Description: as §1

LATS2 = LATS2 (Homo sapiens (Human), UniProt Q9NRM7)
Description: as §1

PIM2 = PIM2 (Homo sapiens (Human), UniProt Q9P1W9)
Description: as §1

CAMK2D = CAMK2D (Homo sapiens (Human), UniProt Q13557)
Description: as §1

PIK3CA(I800L) = PIK3CA(I800L) (Homo sapiens (Human), UniProt P42336, I800L)
Description: as §1

TNK1 = TNK1 (Homo sapiens (Human), UniProt Q13470)
Description: as §1

ASK1 = ASK1 (Homo sapiens (Human), UniProt Q99683)
Description: as §1

DAPK2 = DAPK2 (Homo sapiens (Human), UniProt Q9UIK4)
Description: as §1

GRK2 = GRK2 (Homo sapiens (Human), UniProt P25098)
Description: as §1

PKMYT1 = PKMYT1 (Homo sapiens (Human), UniProt Q99640)
Description: as §1

KIT-autoinhibited = KIT-autoinhibited (Homo sapiens (Human), UniProt P10721)
Description: as §1

FGFR3 = FGFR3 (Homo sapiens (Human), UniProt P22607)
Description: as §1

DRAK2 = DRAK2 (Homo sapiens (Human), UniProt O94768)
Description: as §1

[2] = target: RSK3(Kin.Dom.2- C-terminal) (Homo sapiens (Human), UniProt Q15349)
Description: as §1

MERTK = MERTK (Homo sapiens (Human), UniProt Q12866)
Description: as §1

MYO3B = MYO3B (Homo sapiens (Human), UniProt Q8WXR4)
Description: as §1

CDK11 = CDK11 (Homo sapiens (Human), UniProt Q9BWU1)
Description: as §1

PIP5K1A = PIP5K1A (Homo sapiens (Human), UniProt Q99755)
Description: as §1

RIOK1 = RIOK1 (Homo sapiens (Human), UniProt Q9BRS2)
Description: as §1

PAK6 = PAK6 (Homo sapiens (Human), UniProt Q9NQU5)
Description: as §1

BIKE = BIKE (Homo sapiens (Human), UniProt Q9NSY1)
Description: as §1

[3] = target: ABL1(F317L)-phosphorylated (Homo sapiens (Human), UniProt P00519, F317L)
Description: as §1

ACVR2A = ACVR2A (Homo sapiens (Human), UniProt P27037)
Description: as §1

HCK = HCK (Homo sapiens (Human), UniProt P08631)
Description: as §1

Chain of PRKG2 (Q13237 whole entry): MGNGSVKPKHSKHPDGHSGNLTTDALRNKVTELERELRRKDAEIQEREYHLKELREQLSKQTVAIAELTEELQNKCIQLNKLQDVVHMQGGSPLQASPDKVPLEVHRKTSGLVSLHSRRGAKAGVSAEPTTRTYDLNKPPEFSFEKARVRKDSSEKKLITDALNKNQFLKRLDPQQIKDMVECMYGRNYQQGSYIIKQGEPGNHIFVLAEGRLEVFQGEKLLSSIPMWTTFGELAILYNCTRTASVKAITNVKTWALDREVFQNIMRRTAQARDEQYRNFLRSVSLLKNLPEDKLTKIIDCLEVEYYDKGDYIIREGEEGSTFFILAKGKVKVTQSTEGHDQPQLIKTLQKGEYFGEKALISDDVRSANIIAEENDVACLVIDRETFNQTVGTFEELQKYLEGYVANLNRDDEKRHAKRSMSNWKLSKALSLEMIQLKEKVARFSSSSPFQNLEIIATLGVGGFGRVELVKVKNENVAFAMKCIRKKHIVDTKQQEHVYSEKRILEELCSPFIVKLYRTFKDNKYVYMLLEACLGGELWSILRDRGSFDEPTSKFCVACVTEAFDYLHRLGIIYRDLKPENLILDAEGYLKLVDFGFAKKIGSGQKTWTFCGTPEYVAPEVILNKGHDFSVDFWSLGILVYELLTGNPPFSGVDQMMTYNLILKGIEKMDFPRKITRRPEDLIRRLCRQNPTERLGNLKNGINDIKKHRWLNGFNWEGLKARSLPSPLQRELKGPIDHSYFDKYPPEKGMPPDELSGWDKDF
Chain of GRK2 (P25098 whole entry): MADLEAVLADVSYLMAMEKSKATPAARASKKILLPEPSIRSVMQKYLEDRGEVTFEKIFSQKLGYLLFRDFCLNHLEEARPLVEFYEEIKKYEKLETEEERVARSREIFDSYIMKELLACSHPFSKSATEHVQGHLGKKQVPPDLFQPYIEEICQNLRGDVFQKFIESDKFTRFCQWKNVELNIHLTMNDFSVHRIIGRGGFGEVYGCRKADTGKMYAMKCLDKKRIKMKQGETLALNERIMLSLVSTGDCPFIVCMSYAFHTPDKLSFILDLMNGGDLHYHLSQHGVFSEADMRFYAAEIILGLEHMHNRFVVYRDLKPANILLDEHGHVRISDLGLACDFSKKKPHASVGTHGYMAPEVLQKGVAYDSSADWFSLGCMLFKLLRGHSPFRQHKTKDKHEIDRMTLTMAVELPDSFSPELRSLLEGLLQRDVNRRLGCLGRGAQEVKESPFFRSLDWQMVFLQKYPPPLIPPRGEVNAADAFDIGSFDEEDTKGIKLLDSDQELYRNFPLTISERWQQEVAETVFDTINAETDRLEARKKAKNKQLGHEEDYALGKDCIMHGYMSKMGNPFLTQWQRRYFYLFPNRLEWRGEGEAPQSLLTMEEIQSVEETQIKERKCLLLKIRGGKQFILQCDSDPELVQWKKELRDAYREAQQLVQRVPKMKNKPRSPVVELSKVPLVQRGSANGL
Chain of RSK3(Kin.Dom.2- C-terminal) (Q15349 415-672 limits assumed): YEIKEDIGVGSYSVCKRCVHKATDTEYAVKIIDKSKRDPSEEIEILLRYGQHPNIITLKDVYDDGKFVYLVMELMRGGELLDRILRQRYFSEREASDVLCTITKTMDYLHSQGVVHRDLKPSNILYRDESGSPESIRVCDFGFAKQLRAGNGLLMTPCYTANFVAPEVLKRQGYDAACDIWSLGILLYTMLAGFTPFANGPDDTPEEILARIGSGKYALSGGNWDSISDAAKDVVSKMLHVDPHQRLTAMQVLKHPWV
Chain of PKMYT1 (Q99640 whole entry): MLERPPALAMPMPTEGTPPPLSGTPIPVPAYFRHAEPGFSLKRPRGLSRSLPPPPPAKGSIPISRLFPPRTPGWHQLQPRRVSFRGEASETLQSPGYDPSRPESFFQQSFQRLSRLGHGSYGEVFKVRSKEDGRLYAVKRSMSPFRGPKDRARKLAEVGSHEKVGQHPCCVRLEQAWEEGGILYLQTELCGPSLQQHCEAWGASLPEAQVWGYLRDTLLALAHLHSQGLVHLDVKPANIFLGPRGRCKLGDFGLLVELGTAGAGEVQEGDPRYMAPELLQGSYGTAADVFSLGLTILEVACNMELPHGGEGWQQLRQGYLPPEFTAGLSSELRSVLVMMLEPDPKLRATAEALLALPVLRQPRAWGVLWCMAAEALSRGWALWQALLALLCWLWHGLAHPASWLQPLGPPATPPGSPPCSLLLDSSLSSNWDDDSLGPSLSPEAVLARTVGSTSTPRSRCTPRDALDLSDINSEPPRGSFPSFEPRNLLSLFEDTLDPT
Chain of ERBB3 (P21860 20-1342): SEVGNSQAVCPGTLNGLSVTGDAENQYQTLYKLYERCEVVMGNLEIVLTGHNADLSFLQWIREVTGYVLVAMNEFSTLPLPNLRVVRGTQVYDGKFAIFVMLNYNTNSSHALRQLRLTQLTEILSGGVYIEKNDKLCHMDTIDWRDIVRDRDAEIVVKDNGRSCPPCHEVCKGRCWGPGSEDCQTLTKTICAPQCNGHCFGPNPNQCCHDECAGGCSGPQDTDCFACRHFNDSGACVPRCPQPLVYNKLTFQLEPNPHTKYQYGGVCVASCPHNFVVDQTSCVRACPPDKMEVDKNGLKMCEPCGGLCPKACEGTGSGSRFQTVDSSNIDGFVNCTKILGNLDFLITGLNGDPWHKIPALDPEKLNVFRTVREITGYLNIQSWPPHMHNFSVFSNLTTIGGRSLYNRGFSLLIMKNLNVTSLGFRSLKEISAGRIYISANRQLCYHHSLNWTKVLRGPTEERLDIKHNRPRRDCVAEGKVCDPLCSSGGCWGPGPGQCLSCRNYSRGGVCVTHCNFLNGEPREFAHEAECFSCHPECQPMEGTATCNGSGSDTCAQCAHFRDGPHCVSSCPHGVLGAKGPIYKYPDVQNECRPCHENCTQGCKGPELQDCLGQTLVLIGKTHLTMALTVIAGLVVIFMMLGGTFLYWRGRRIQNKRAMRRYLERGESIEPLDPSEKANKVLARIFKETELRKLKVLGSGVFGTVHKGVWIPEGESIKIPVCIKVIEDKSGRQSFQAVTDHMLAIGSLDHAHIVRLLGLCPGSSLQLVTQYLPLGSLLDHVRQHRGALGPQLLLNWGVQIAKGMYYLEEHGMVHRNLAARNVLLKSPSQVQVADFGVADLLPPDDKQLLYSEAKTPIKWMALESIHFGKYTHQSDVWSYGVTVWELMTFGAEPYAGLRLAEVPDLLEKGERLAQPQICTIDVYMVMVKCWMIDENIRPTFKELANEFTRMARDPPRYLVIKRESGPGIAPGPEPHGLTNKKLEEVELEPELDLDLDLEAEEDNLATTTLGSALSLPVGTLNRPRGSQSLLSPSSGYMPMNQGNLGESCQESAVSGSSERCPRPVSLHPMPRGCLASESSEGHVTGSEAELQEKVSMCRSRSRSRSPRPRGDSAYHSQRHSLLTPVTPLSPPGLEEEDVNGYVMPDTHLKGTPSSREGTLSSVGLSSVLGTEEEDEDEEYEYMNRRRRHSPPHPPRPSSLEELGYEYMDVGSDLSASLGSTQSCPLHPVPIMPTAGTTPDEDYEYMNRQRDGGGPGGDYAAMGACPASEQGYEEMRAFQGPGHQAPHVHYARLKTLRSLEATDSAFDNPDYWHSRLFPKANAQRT
Chain of CAMK2D (Q13557 whole entry): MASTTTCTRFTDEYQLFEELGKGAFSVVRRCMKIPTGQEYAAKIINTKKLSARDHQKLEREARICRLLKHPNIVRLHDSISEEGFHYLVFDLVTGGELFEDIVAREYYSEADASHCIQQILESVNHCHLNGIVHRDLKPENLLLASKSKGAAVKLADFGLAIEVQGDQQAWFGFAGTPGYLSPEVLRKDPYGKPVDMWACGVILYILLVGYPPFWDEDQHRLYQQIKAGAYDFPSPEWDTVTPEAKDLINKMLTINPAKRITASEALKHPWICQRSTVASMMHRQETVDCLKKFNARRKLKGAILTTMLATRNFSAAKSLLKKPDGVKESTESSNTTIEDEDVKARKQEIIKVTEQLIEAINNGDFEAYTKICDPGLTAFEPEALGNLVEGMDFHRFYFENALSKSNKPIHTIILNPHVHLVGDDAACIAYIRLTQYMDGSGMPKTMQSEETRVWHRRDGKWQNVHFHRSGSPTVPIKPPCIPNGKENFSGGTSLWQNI
Chain of MERTK (Q12866 21-999): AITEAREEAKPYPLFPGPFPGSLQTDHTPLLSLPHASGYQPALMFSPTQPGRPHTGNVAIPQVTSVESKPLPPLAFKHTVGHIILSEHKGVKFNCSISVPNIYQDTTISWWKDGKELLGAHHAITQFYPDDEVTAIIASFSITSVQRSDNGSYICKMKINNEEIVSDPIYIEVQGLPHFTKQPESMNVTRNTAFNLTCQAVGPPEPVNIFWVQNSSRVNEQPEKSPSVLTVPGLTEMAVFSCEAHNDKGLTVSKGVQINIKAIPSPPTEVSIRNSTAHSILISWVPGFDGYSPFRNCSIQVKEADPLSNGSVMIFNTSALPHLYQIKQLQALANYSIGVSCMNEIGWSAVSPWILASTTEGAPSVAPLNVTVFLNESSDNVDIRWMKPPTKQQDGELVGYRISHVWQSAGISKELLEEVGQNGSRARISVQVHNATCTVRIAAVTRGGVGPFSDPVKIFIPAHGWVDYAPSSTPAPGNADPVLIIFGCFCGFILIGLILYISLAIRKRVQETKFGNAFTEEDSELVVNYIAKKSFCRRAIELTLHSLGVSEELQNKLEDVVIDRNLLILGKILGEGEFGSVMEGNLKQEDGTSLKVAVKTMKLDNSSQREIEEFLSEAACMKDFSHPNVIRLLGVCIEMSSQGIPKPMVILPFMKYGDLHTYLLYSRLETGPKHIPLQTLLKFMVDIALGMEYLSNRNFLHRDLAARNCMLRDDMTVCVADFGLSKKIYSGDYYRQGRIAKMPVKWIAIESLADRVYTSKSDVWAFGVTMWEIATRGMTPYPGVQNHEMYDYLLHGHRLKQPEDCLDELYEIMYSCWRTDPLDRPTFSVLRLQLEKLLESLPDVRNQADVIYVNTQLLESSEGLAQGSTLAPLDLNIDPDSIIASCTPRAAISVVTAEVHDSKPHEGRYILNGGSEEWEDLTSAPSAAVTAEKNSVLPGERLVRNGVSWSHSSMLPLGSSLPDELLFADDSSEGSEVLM

Work on CCN1CCN(Cc2ccc(Nc3nc4ccc(Oc5ccnc(NC(C)=O)c5)cc4n3C)cc2C(F)(F)F)CC1 [Compound I-2] yielded a remaining binding at 1 µM (PRKG2) of 92%, a remaining binding at 1 µM (PFTK1) of 94% and a remaining binding at 1 µM (ERBB3) of 62%. The remaining binding at 1 µM (ALK) was 76%, the remaining binding at 1 µM (BTK) was 78% and the remaining binding at 1 µM (GSK3B) was 76%. It also gave a remaining binding at 1 µM (VPS34) of 87%, a remaining binding at 1 µM (PAK1) of 88% and a remaining binding at 1 µM (CHEK1) of 100%. The remaining binding at 1 µM (ERN1) was 91%, the remaining binding at 1 µM (TRKB) was 36% and the remaining binding at 1 µM [1] was 98%. It also gave a remaining binding at 1 µM (MLK1) of 100%, a remaining binding at 1 µM (EGFR(G719C)) of 97% and a remaining binding at 1 µM (CDK4-cyclinD1) of 85%. It also gave a remaining binding at 1 µM (BRAF(V600E)) of 0.8%, a remaining binding at 1 µM (PIK3CA) of 90% and a remaining binding at 1 µM (LATS2) of 100%. For the same molecule, the remaining binding at 1 µM (PIM2) was 91%, the remaining binding at 1 µM (CAMK2D) was 100% and the remaining binding at 1 µM (PIK3CA(I800L)) was 75%. The remaining binding at 1 µM (TNK1) was 76%, the remaining binding at 1 µM (ASK1) was 77% and the remaining binding at 1 µM (DAPK2) was 79%. For the same molecule, the remaining binding at 1 µM (GRK2) was 100%, the remaining binding at 1 µM (PKMYT1) was 91% and the remaining binding at 1 µM (KIT-autoinhibited) was 76%. The remaining binding at 1 µM (FGFR3) was 97%, the remaining binding at 1 µM (DRAK2) was 100% and the remaining binding at 1 µM [2] was 82%. It also gave a remaining binding at 1 µM (MERTK) of 32%, a remaining binding at 1 µM (MYO3B) of 87% and a remaining binding at 1 µM (CDK11) of 1.5%. The remaining binding at 1 µM (PIP5K1A) was 99%, the remaining binding at 1 µM (RIOK1) was 100% and the remaining binding at 1 µM (PAK6) was 93%. For the same molecule, the remaining binding at 1 µM (BIKE) was 88%, the remaining binding at 1 µM [3] was 43% and the remaining binding at 1 µM (ACVR2A) was 100%. For the same molecule, the remaining binding at 1 µM (HCK) was 89%.

For CCN1CCN(Cc2ccc(Nc3nc4ccc(Oc5ccnc(NC(C)=O)c5)c(C)c4n3C)cc2C(F)(F)F)CC1 [Compound I-6, N-(4-(2-(4-((4-ethylpiperazin-1-yl)methyl)-3-(trifluoromethyl)phenylamino)-1,7-dimethyl-1H-benzo[d]imidazol-6-yloxy)pyridin-2-yl)acetamide], the remaining binding at 1 µM (PRKG2) was 93%, the remaining binding at 1 µM (PFTK1) was 61% and the remaining binding at 1 µM (ERBB3) was 89%. The remaining binding at 1 µM (ALK) was 90%, the remaining binding at 1 µM (BTK) was 88% and the remaining binding at 1 µM (GSK3B) was 100%. For the same molecule, the remaining binding at 1 µM (VPS34) was 100%, the remaining binding at 1 µM (PAK1) was 77% and the remaining binding at 1 µM (CHEK1) was 100%. For the same molecule, the remaining binding at 1 µM (ERN1) was 97%, the remaining binding at 1 µM (TRKB) was 1.4% and the remaining binding at 1 µM [1] was 99%. The remaining binding at 1 µM (MLK1) was 100%, the remaining binding at 1 µM (EGFR(G719C)) was 94% and the remaining binding at 1 µM (CDK4-cyclinD1) was 83%. For the same molecule, the remaining binding at 1 µM (BRAF(V600E)) was 1.8%, the remaining binding at 1 µM (PIK3CA) was 91% and the remaining binding at 1 µM (LATS2) was 100%. For the same molecule, the remaining binding at 1 µM (PIM2) was 92%, the remaining binding at 1 µM (CAMK2D) was 85% and the remaining binding at 1 µM (PIK3CA(I800L)) was 98%. It also gave a remaining binding at 1 µM (TNK1) of 82%, a remaining binding at 1 µM (ASK1) of 97% and a remaining binding at 1 µM (DAPK2) of 99%. For the same molecule, the remaining binding at 1 µM (GRK2) was 91%, the remaining binding at 1 µM (PKMYT1) was 90% and the remaining binding at 1 µM (KIT-autoinhibited) was 82%. For the same molecule, the remaining binding at 1 µM (FGFR3) was 97%, the remaining binding at 1 µM (DRAK2) was 85% and the remaining binding at 1 µM [2] was 95%. The remaining binding at 1 µM (MERTK) was 59%, the remaining binding at 1 µM (MYO3B) was 89% and the remaining binding at 1 µM (CDK11) was 1.6%. It also gave a remaining binding at 1 µM (PIP5K1A) of 100%, a remaining binding at 1 µM (RIOK1) of 100% and a remaining binding at 1 µM (PAK6) of 90%. The remaining binding at 1 µM (BIKE) was 96%, the remaining binding at 1 µM [3] was 44% and the remaining binding at 1 µM (ACVR2A) was 100%. It also gave a remaining binding at 1 µM (HCK) of 34%.

— patent US12522583B2, “Benzimidazole derivatives and aza-benzimidazole derivatives as Janus kinase 2 inhibitors and uses thereof” (Dana-Farber Cancer Institute, Inc., priority 2018, dated 2026)
